Test results as given in patent EP0980241B1 (Pfizer Products Inc., priority 1997, dated 1999).
Values after ≈ are worked out from the molar mass of the structure shown. Structures can show the parent of a compound that is named as a salt.

Key:
[1] = Dilution of PEG-400 or polysorbate-80 solution of sertraline base into 0.9% NaCl (precipitation test); type: physicochemical; conditions: for Observed Concentration after Dilution in Saline, after 15 min / Observed Concentration after Dilution in Saline, after 2 hr: 1 ml into 15 ml 0.9% NaCl pH 4.2
Procedure: One ml of this test solution was added to 15 ml normal saline (0.9% NaCl, pH 4.2), and was stirred vigorously. […]

[2] = Precipitation studies: sertraline base solution in vehicle added to 0.1 N HCl or phosphate buffered saline pH 5.8; type: physicochemical
Procedure: Solution (a) is a simulated gastric fluid, and solution (b) is a simulated intestinal fluid.
PEG-400 is miscible with aqueous media, while Capmul® -MCM and safflower oil are not. One milliliter of the test solution was added to 10 mL of (a) 0.1 N HCl solution and (b) phosphate buffered saline (PBS) pH 5.8 and was stirred vigorously.
• Mobile phase: per liter of mobile phase: 270 mL of tetrahydrofuran, 230 mL of methanol and 400 mL of buffer. The buffer consisted of 25 mM triethylamine phosphate. It was prepared by adding 1.7 mL of phosphoric acid and 3.5 mL of tirethylamine to 1 liter of water.

[3] = not given; remark: listed apart in the source
[4] = in vivo
[5] = known oral immediate-release dosage forms; cited from earlier work
[6] = Chloride-induced gelling of saturated aqueous sertraline salt solutions; type: physicochemical
[7] = PEG-400, 50 mgA/ml in vehicle, expected 3.1
[8] = PEG-400, 100 mgA/ml in vehicle, expected 6.25
[9] = Polysorbate-80, 50 mgA/ml in vehicle, expected 3.1
[10] = Polysorbate-80, 100 mgA/ml in vehicle, expected 6.25

## CN[C@H]1CC[C@@H](c2ccc(Cl)c(Cl)c2)c2ccccc21 [Free base, sertraline free base]
[1]; [7]
  Observed Concentration after Dilution in Saline, after 15 min: 0.9 mgA/ml
  Observed Concentration after Dilution in Saline, after 2 hr: 2.1 mgA/ml
[1]; [8]
  Observed Concentration after Dilution in Saline, after 15 min: 0.7 mgA/ml
  Observed Concentration after Dilution in Saline, after 2 hr: 1.8 mgA/ml
[1]; PEG-400 solution
  Precipitation upon addition to a NaCl solution: a portion of the sertraline precipitates
[1]; [9]
  Observed Concentration after Dilution in Saline, after 15 min: 3.1 mgA/ml
  Observed Concentration after Dilution in Saline, after 2 hr: 3.1 mgA/ml
[1]; [10]
  Observed Concentration after Dilution in Saline, after 15 min: 6.25 mgA/ml
  Observed Concentration after Dilution in Saline, after 2 hr: 6.25 mgA/ml
[1]; Polysorbate-80 solution
  Precipitation upon addition to a NaCl solution: no precipitation occurs
[2]; Capmul MCM 50 mgA/mL, 1 mL into 10 mL 0.1 N HCl, 15 minutes
  Concentration of sertraline in non-aqueous layer: 44 mgA/ mL
[2]; Capmul MCM 50 mgA/mL, 1 mL into 10 mL 0.1 N HCl, 15 minutes, expected 5.00
  Concentration of sertraline in aqueous layer: 0.38 mgA/ mL
[2]; Capmul MCM 50 mgA/mL, 1 mL into 10 mL 0.1 N HCl, 120 minutes
  Concentration of sertraline in non-aqueous layer: 44.2 mgA/ mL
[2]; Capmul MCM 50 mgA/mL, 1 mL into 10 mL 0.1 N HCl, 120 minutes, expected 5.00
  Concentration of sertraline in aqueous layer: 0.31 mgA/ mL
[2]; Capmul MCM 50 mgA/mL, 1 mL into 10 mL Phosphate buffered saline pH 5.8, 15 minutes
  Concentration of sertraline in non-aqueous layer: 48 mgA/ mL
[2]; Capmul MCM 50 mgA/mL, 1 mL into 10 mL Phosphate buffered saline pH 5.8, 15 minutes, expected 5.00
  Concentration of sertraline in aqueous layer: 0.18 mgA/ mL
[2]; Capmul MCM 50 mgA/mL, 1 mL into 10 mL Phosphate buffered saline pH 5.8, 120 minutes
  Concentration of sertraline in non-aqueous layer: 48.6 mgA/ mL
[2]; Capmul MCM 50 mgA/mL, 1 mL into 10 mL Phosphate buffered saline pH 5.8, 120 minutes, expected 5.00
  Concentration of sertraline in aqueous layer: 0.16 mgA/ mL
[2]; Capmul-MCM vehicle
  precipitation of sertraline: essentially no precipitation
[2]; Capmul-MCM vehicle, 0.1 N HCl or phosphate buffered saline
  portion of sertraline that remains in solution: > 95 % of added amount
[2]; PEG 400 50 mgA/mL, 1 mL into 10 mL 0.1 N HCl, 15 minutes, expected 4.55
  Concentration of sertraline in aqueous layer: 0.6 mgA/ mL
[2]; PEG 400 50 mgA/mL, 1 mL into 10 mL 0.1 N HCl, 120 minutes, expected 4.55
  Concentration of sertraline in aqueous layer: 0.35 mgA/ mL
[2]; PEG 400 50 mgA/mL, 1 mL into 10 mL Phosphate buffered saline pH 5.8, 15 minutes, expected 4.55
  Concentration of sertraline in aqueous layer: 0.16 mgA/ mL
[2]; PEG 400 50 mgA/mL, 1 mL into 10 mL Phosphate buffered saline pH 5.8, 120 minutes, expected 4.55
  Concentration of sertraline in aqueous layer: 0.12 mgA/ mL
[2]; PEG 400 solution into either 0.1 N HCl or phosphate buffered saline
  precipitation of sertraline: precipitation of a large proportion of sertraline
[2]; Safflower oil 50 mgA/mL, 1 mL into 10 mL 0.1 N HCl, 15 minutes
  Concentration of sertraline in non-aqueous layer: 4.8 mgA/ mL
[2]; Safflower oil 50 mgA/mL, 1 mL into 10 mL 0.1 N HCl, 15 minutes, expected 5.00
  Concentration of sertraline in aqueous layer: 0.48 mgA/ mL
[2]; Safflower oil 50 mgA/mL, 1 mL into 10 mL 0.1 N HCl, 120 minutes
  Concentration of sertraline in non-aqueous layer: 3.2 mgA/ mL
[2]; Safflower oil 50 mgA/mL, 1 mL into 10 mL 0.1 N HCl, 120 minutes, expected 5.00
  Concentration of sertraline in aqueous layer: 0.48 mgA/ mL
[2]; Safflower oil 50 mgA/mL, 1 mL into 10 mL Phosphate buffered saline pH 5.8, 15 minutes
  Concentration of sertraline in non-aqueous layer: 45 mgA/ mL
[2]; Safflower oil 50 mgA/mL, 1 mL into 10 mL Phosphate buffered saline pH 5.8, 15 minutes, expected 5.00
  Concentration of sertraline in aqueous layer: 0.19 mgA/ mL
[2]; Safflower oil 50 mgA/mL, 1 mL into 10 mL Phosphate buffered saline pH 5.8, 120 minutes
  Concentration of sertraline in non-aqueous layer: 44.6 mgA/ mL
[2]; Safflower oil 50 mgA/mL, 1 mL into 10 mL Phosphate buffered saline pH 5.8, 120 minutes, expected 5.00
  Concentration of sertraline in aqueous layer: 0.19 mgA/ mL
[2]; safflower oil solution added to phosphate buffered saline
  precipitation of sertraline: little or no precipitation
[2]; safflower oil vehicle, in the presence of 0.1N HCl
  precipitation of sertraline: 81%
capmul-mcm
  Equilibrium solubility in Capmul-®MCM: >50 mgA/ml
Captex 200
  Equilibrium solubility in Captex® 200: >50 mgA/ml
Miglyol 810
  Equilibrium solubility in Migloyol® 810: >50 mgA/ml
Oleic acid
  Equilibrium solubility in Oleic acid: >50 mgA/ml
other
  Equilibrium solubility in Olive oil: >50 mgA/ml
  Equilibrium solubility in Safflower oil: >50 mgA/ml
physchem; polysorbate-80, organic solvent or mixture
  solubility: ~102 mg/mL (≈ 333 mM)

## CN[C@H]1CC[C@@H](c2ccc(Cl)c(Cl)c2)c2ccccc21 [Hydrochloride, sertraline hydrochloride]
[3]
  Solubility in Polysorbate-80: <14 mgA/ml
other
  Equilibrium solubility in Olive oil: <0.01 (below detection limit) mgA/ml
  Equilibrium solubility in Safflower oil: <0.01 (below detection limit) mgA/ml
physchem; capmul-mcm, organic solvent or mixture, Solubility in Capmul-MCM
  solubility: ~45 mg/mL
physchem; safflower oil, organic solvent or mixture, Solubility in Safflower Oil
  solubility: < 9 mg/mL

## CN[C@H]1CC[C@@H](c2ccc(Cl)c(Cl)c2)c2ccccc21 [sertraline]
[4]
  half-time for absorption: less than 27.7 minutes
[5]
  Tmax: 6 to 7 h

## sertraline acetate
[6]
  appearance of saturated solution at physiological chloride concentrations: thick pasty solid which does not flow

## sertraline lactate
[6]
  appearance of saturated solution at physiological chloride concentrations: thick pasty solid which does not flow
